Data published in patent US8846951B2 (AbbVie Inc., priority 2009, dated 2014).
Read-outs that look alike come from different tables or passages of the source.

What was measured:
[1] = biological target: T1, 5HT2C receptors (Homo sapiens, UniProt P28335); assay: Human 5-HT2C functional high throughput screening assay in CHO-K1 cells (calcium flux); assay type: cell-based; parameters: expressed in transfected cells; host or cells: CHO-K1 cells; details: for EC50: CHO-K1 cells, calcium flux; for Emax: CHO-K1, 5-HT2C, maximum functional response as percentage relative to the effect of serotonin
T1 sequence (P28335 33-458): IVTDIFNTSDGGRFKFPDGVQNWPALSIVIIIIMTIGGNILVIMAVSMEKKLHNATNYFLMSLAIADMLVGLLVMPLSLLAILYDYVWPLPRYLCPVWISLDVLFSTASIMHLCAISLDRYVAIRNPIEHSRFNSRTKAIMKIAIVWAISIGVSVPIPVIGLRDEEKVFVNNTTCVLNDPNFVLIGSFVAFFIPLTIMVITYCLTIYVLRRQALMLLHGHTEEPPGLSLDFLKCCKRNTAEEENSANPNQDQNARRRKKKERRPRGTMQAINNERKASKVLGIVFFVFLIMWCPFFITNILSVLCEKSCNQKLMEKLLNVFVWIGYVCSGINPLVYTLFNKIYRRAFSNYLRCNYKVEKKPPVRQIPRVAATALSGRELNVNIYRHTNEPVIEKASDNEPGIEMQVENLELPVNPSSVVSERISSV
Procedure, shortened: (§1)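 Frozen CHO-K1 cells overexpressing the receptor were plated, serum-starved overnight, then loaded with Ca4 dye plus 2.5 mM probenecid for 60 min at room temperature. FLIPR fluorescence (ex 480/em 530 nm, 25 °C) after compound addition was normalized to serotonin; EC50 and Emax came from 4-parameter logistic fits.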

[2] = biological target: T2, 5HT2B receptors (Homo sapiens, UniProt P41595); assay: Human 5-HT2B functional high throughput screening assay in CHO-K1 cells (calcium flux); assay type: cell-based; details: for EC50: CHO-K1 cells, calcium flux
T2 construct: expressed in transfected cells; host or cells: CHO-K1 cells
T2 sequence (P41595 whole entry): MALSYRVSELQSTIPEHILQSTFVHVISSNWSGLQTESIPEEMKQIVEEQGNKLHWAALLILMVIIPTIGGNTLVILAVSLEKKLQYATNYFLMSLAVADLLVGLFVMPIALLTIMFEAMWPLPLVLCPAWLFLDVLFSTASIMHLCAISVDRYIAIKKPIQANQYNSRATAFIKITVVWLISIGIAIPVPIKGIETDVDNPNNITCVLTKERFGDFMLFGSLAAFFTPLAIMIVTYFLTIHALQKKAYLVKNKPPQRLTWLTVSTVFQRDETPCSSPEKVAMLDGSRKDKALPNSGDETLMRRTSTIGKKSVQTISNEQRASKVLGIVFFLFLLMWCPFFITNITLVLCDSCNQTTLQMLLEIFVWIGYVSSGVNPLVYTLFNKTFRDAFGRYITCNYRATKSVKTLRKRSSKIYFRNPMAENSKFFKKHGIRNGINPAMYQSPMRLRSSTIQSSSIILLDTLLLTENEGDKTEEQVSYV
Procedure, shortened: as §1

[3] = 5-HT2C agonist activity, read-out: EC50
[4] = 5-HT2B agonist activity, read-out: EC50
[5] = 5-HT2B, maximum functional response as percentage relative to the effect of serotonin
[6] = CHO-K1, 5-HT2B, maximum functional response as percentage relative to the effect of serotonin, read-out: Emax

EC50 [1, 3] [nM] | Emax ([1]; read-out: Emax) [%] | EC50 [2, 4] [nM] | Emax [2, 5] | Emax [2, 6] [%] | SMILES | Emax [1] [%] | EC50 ([1]; EC50, 5-HT2C agonist activity) [nM] | EC50 ([2]; EC50, 5-HT2B agonist activity) [nM] | Emax ([2]; CHO-K1) [%]
7 | > 120 | > 10000 | inactive | – | CN1C[C@H]2CNC(=O)c3cc(-c4cccc(CCO)c4)ccc3[C@@H]2C1 (relative stereo) [Example 253, Trans-8-(3-(2-hydroxyethyl)phenyl)-2-methyl-1,2,3,3a,4,5-hexahydrobenzo[c]pyrrolo[3,4-e]azepin-6(10bH)-one] | – | – | – | –
1000 | 105 | 800 | – | 30 | c1ccc(CN2C[C@H]3CCNc4ccccc4[C@@H]3C2)cc1 (relative stereo) [Example 254, Trans-2-benzyl-1,2,3,3a,4,5,6,10b-octahydrobenzo[b]pyrrolo[3,4-d]azepine] | – | – | – | –
30 | 90 | > 10000 | inactive | – | CCS(=O)(=O)c1cccc(-c2ccc3c(c2)C(=O)NC[C@@H]2CN(C)C[C@@H]32)c1 (relative stereo) [Example 255, Trans-8-(3-(ethylsulfonyl)phenyl)-2-methyl-1,2,3,3a,4,5-hexahydrobenzo[c]pyrrolo[3,4-e]azepin-6(10bH)-one] | – | – | – | –
100 | 90 | > 10000 | inactive | – | O=C1NC[C@@H]2CN(Cc3ccccc3)C[C@H]2c2cc3ccccc3cc21 (relative stereo) [Example 256, Trans-2-benzyl-1,2,3,3a,4,5-hexahydronaphtho[2,3-c]pyrrolo[3,4-e]azepin-6(12bH)-one] | – | – | – | –
20 | 120 | 60 | – | 40 | O=C1NC[C@@H]2CNC[C@H]2c2cc3ccccc3cc21 (relative stereo) [Example 257, Trans-1,2,3,3a,4,5-hexahydronaphtho[2,3-e]pyrrolo[3,4-e]azepin-6(12bH)-one] | – | – | – | –
40 | > 120 | > 10000 | inactive | – | COc1ccc2c(c1)[C@H]1CN(Cc3ccccc3)C[C@@H]1CCC2=O (relative stereo) [Example 261, Trans-2-benzyl-9-methoxy-2,3,3a,4,5,10b-hexahydrobenzo[3,4]cyclohepta[1,2-c]pyrrol-6(1H)-one] | – | – | – | –
– | – | – | – | – | COc1ccc2c(c1)[C@H]1CNC[C@@H]1CCC2 (relative stereo) [Example 263, Trans-9-methoxy-1,2,3,3a,4,5,6,10b-octahydrobenzo[3,4]cyclohepta[1,2-c]pyrrole] | > 120 | 100 | 20 | 100
100 | > 120 | > 10000 | inactive | – | O=C1NC[C@@H]2CNC[C@H]2c2ccc(C3CCOCC3)cc21 (relative stereo) [Example 265, Trans-8-(tetrahydro-2H-pyran-4-yl)-1,2,3,3a,4,5-hexahydrobenzo[c]pyrrolo[3,4-e]azepin-6(10bH)-one] | – | – | – | –
– | – | – | – | – | COc1ccc2c(c1)[C@H]1CNC[C@@H]1CC=C2 (relative stereo) [Example 266, Trans-9-methoxy-1,2,3,3a,4,10b-hexahydrobenzo[3,4]cyclohepta[1,2-c]pyrrole] | > 120 | 10 | 400 | 25
1000 | 90 | > 10000 | inactive | – | CN1C[C@H]2CNC(=O)c3cc(C4CCOCC4)ccc3[C@@H]2C1 (relative stereo) [Example 267, Trans-2-methyl-8-(tetrahydro-2H-pyran-4-yl)-1,2,3,3a,4,5-hexahydrobenzo[c]pyrrolo[3,4-e]azepin-6(10bH)-one] | – | – | – | –
– | – | – | – | – | CN1C[C@@H]2CCCc3ccccc3[C@@H]2C1 (relative stereo) [Example 269, Cis-2-methyl-1,2,3,3a,4,5,6,10b-octahydrobenzo[3,4]cyclohepta[1,2-c]pyrrole] | > 120 | 100 | 800 | 50
– | – | – | – | – | COc1cccc2c1[C@H]1CNC[C@@H]1CCO2 (relative stereo) [Example 272, Trans-10-methoxy-2,3,3a,4,5,10b-hexahydro-1H-[1]benzoxepino[4,5-c]pyrrole] | > 120 | 7 | 200 | 20
– | – | – | – | – | COc1cccc2c1[C@H]1CN(C)C[C@@H]1CCO2 (relative stereo) [Example 273, Trans-10-methoxy-2-methyl-2,3,3a,4,5,10b-hexahydro-1H-[1]benzoxepino[4,5-c]pyrrole] | > 120 | 10 | 100 | 35
8 | > 120 | > 10000 | inactive | – | O=C1NC[C@@H]2CNC[C@H]2c2ccc(-c3c(F)cccc3F)cc21 (relative stereo) [Example 276, Trans-8-(2,6-difluorophenyl)-1,2,3,3a,4,5-hexahydrobenzo[e]pyrrolo[3,4-c]azepin-6(10bH)-one] | – | – | – | –
– | – | – | – | – | Cc1cc2c(cc1F)C(=O)NC[C@@H]1CNC[C@H]21 (relative stereo) [Example 279, Cis-8-fluoro-9-methyl-1,2,3,3a,4,5-hexahydrobenzo[c]pyrrolo[3,4-e]azepin-6(10bH)-one] | > 120 | 60 | 900 | 90
– | – | – | – | – | COc1ccc2c(c1)OCC[C@H]1CNC[C@H]21 (relative stereo) [Example 280, Trans-8-methoxy-2,3,3a,4,5,10b-hexahydro-1H-[1]benzoxepino[4,5-c]pyrrole] | 100 | 90 | 100 | 60
– | – | – | – | – | Fc1cccc2c1OCC[C@H]1CNC[C@H]21 (relative stereo) [Example 281, Trans-7-fluoro-2,3,3a,4,5,10b-hexahydro-1H-[1]benzoxepino[4,5-c]pyrrole] | 100 | 8 | 100 | 90

SMILES | EC50 [1, 3] [nM] | Emax ([1]; read-out: Emax) [%] | EC50 [2, 4] [nM] | Emax [2, 5] | Emax [2, 6] [%] | Emax [1] [%] | EC50 ([1]; EC50, 5-HT2C agonist activity) [nM] | EC50 ([2]; EC50, 5-HT2B agonist activity) [nM] | Emax ([2]; CHO-K1) [%]
O=C1NC[C@@H]2CNC[C@H]2c2cc3c(cc21)CCCC3 (relative stereo) [Example 258, Trans-1,2,3,3a,4,5,8,9,10,11-decahydronaphtho[2,3-c]pyrrolo[3,4-e]azepin-6(12bH)-one] | – | – | – | inactive | – | 100 | 10 | > 10000 | –
c1ccc(CN2C[C@H]3CCOc4ncccc4[C@@H]3C2)cc1 (relative stereo) [Example 262, Trans-2-benzyl-2,3,3a,4,5,10b-hexahydro-1H-pyrrolo[3′,4′:4,5]oxepino[2,3-b]pyridine] | 2000 | – | > 10000 | inactive | – | 90 | – | – | –
c1cnc2c(c1)[C@@H]1CNC[C@H]1CCO2 (relative stereo) [Example 264, Trans-2,3,3a,4,5,10b-hexahydro-1H-pyrrolo[3′,4′:4,5]oxepino[2,3-b]pyridine] | 1000 | – | 3000 | – | – | > 120 | – | – | 20
CN1C[C@H]2CCOc3ncccc3[C@@H]2C1 (relative stereo) [Example 268, Trans-2-methyl-2,3,3a,4,5,10b-hexahydro-1H-pyrrolo[3′,4′:4,5]oxepino[2,3-b]pyridine] | 7000 | – | > 10000 | inactive | – | 70 | – | – | –
FC(F)(F)Oc1ccc2c(c1)[C@H]1CNC[C@@H]1CCO2 (relative stereo) [Example 282, Trans-9-(trifluoromethoxy)-2,3,3a,4,5,10b-hexahydro-1H-[1]benzoxepino[4,5-c]pyrrole] | 900 | – | 200 | – | – | 70 | – | – | 30
